The test system of the assay is BDF1 mice, B16 melanoma ip, median survival T/C. The assay is described as follows: NCI In Vivo Anticancer Drug Screen. Data for tumor model B16 Melanoma (intraperitoneal) in B6D2F1 (BDF1) mice. The conditions noted are these: endpoint: median survival time, higher = longer survival. A digest of the protocol:
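Transplantable tumor model; survival or tumor size measured; reported as T/C, treated over vehicle control.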

Where [1] appears, read: dose: 20.0 mg/kg/injection, schedule: Q01DX009 (ip), vehicle: saline with Tween-80.
Where [2] appears, read: dose: 40.0 mg/kg/injection, schedule: Q01DX009 (ip), vehicle: saline with Tween-80.
[3] abbreviates: dose: 25.0 mg/kg/injection, schedule: Q01DX009 (ip), vehicle: Klucel (hydroxypropylcellulose) (HPC).
[4] abbreviates: dose: 50.0 mg/kg/injection, schedule: Q01DX009 (ip), vehicle: Klucel (hydroxypropylcellulose) (HPC).
[5] abbreviates: dose: 100.0 mg/kg/injection, schedule: Q01DX009 (ip), vehicle: Klucel (hydroxypropylcellulose) (HPC).
Where [6] appears, read: dose: 25.0 mg/kg/injection, schedule: Q01DX009 (ip), vehicle: saline with Tween-80.
Where [7] appears, read: dose: 100.0 mg/kg/injection, schedule: Q01DX009 (ip), vehicle: saline with Tween-80.
The mark [8] stands for this setting: dose: 200.0 mg/kg/injection, schedule: Q01DX009 (ip), vehicle: saline with Tween-80.
Where [9] appears, read: dose: 400.0 mg/kg/injection, schedule: Q01DX009 (ip), vehicle: saline with Tween-80.

Values joined by “and” are separate entries in the source; they are usually repeats but may differ in a detail not shown here. Identical values can stand only once. Inconclusive results and toxic doses are left out.

On to `[Cl][Pt+2][Cl].[NH-]c1ccc(C(=O)c2ccccc2)cc1[NH-]`, for which the T/C is 108 % of control under setting [1]; 113 % of control under setting [2]; 118 % of control (dose: 80.0 mg/kg/injection, schedule: Q01DX009 (ip), vehicle: saline with Tween-80); 114 % of control (dose: 160.0 mg/kg/injection, schedule: Q01DX009 (ip), vehicle: saline with Tween-80); 113 % of control (dose: 320.0 mg/kg/injection, schedule: Q01DX009 (ip), vehicle: saline with Tween-80).
Consider `COCc1ccc(COC)cc1`, for which the T/C runs as follows: (dose: 100.0 mg/kg/injection, schedule: Q04DX003 (ip), vehicle: saline) 102 % of control; (dose: 200.0 mg/kg/injection, schedule: Q04DX003 (ip), vehicle: saline) 102 % of control; (dose: 400.0 mg/kg/injection, schedule: Q04DX003 (ip), vehicle: saline) 100 % of control.
Consider `CC(C)NCC(O)c1ccc(O)c(O)c1` (stereo not given), for which the T/C reads like this: (dose: 17.5 mg/kg/injection, schedule: Q01DX009 (ip), vehicle: Klucel (hydroxypropylcellulose) (HPC)) 101 % of control; (dose: 35.0 mg/kg/injection, schedule: Q01DX009 (ip), vehicle: Klucel (hydroxypropylcellulose) (HPC)) 99 % of control; (dose: 70.0 mg/kg/injection, schedule: Q01DX009 (ip), vehicle: Klucel (hydroxypropylcellulose) (HPC)) 94 % of control.
`Cn1c2ccccc2c(=O)c2ccc(Cl)cc21`: the T/C is 97 % of control under setting [3], 97 % of control under setting [4] and 91 % of control under setting [5].
For `C=CCN1CCC(C(=O)CC)(c2ccccc2)CC1`, the T/C (dose: 10.0 mg/kg/injection, schedule: Q04DX003 (ip), vehicle: Klucel (hydroxypropylcellulose) (HPC)) was 111 % of control; the T/C (dose: 20.0 mg/kg/injection, schedule: Q04DX003 (ip), vehicle: Klucel (hydroxypropylcellulose) (HPC)) is 114 % of control; the T/C (dose: 40.0 mg/kg/injection, schedule: Q04DX003 (ip), vehicle: Klucel (hydroxypropylcellulose) (HPC)) is 114 % of control.
Turning to `CN1C2C=C(c3ccccc3)C(Br)C1CC2` (stereo not given), the T/C by setting is: under setting [1], 98 % of control; (dose: 20.0 mg/kg/injection, schedule: Q04DX003 (ip), vehicle: saline with Tween-80) 100 % of control; under setting [2], 91 % of control; (dose: 40.0 mg/kg/injection, schedule: Q04DX003 (ip), vehicle: saline with Tween-80) 104 % of control; (dose: 80.0 mg/kg/injection, schedule: Q04DX003 (ip), vehicle: saline with Tween-80) 88 % of control.
On to `C=CCN(C)N=Nc1ccc(C(N)=O)cc1`, for which the T/C is, setting by setting: under setting [3], 105 % of control; under setting [4], 110 % of control; under setting [5], 107 % of control.
With `CCCCn1cnc2c(N)ncnc21`, the T/C (dose: 12.5 mg/kg/injection, schedule: Q01DX009 (ip), vehicle: Klucel (hydroxypropylcellulose) (HPC)) was 92 % of control and the T/C under setting [4] is 87 % of control.
Take `O=C(COc1ccc(Cl)cc1)Nc1ccc(Cl)cc1`: the T/C under setting [6] was 90 % of control; the T/C (dose: 50.0 mg/kg/injection, schedule: Q01DX009 (ip), vehicle: saline with Tween-80) is 92 % of control; the T/C under setting [7] is 92 % of control.
For `Cc1ccc2c(c1)CC(C)([CH2][Hg][Cl])O2` (stereo not given), the T/C is, setting by setting: (dose: 0.75 mg/kg/injection, schedule: Q01DX009 (ip), vehicle: Klucel (hydroxypropylcellulose) (HPC)) 100 % of control; (dose: 0.75 mg/kg/injection, schedule: Q04DX003 (ip), vehicle: Klucel (hydroxypropylcellulose) (HPC)) 95 % of control; (dose: 1.5 mg/kg/injection, schedule: Q01DX009 (ip), vehicle: Klucel (hydroxypropylcellulose) (HPC)) 93 % of control; (dose: 1.5 mg/kg/injection, schedule: Q04DX003 (ip), vehicle: Klucel (hydroxypropylcellulose) (HPC)) 100 % of control; (dose: 3.0 mg/kg/injection, schedule: Q01DX009 (ip), vehicle: Klucel (hydroxypropylcellulose) (HPC)) 92 % of control and 95 % of control; (dose: 3.0 mg/kg/injection, schedule: Q04DX003 (ip), vehicle: Klucel (hydroxypropylcellulose) (HPC)) 93 % of control and 95 % of control.
In the case of `CCCCCCCCCCCCCCCC[N+]1(C)CCN(SN2CC[N+](C)(CCCCCCCCCCCCCCCC)CC2)CC1`, the T/C was 93 % of control (dose: 1.56 mg/kg/injection, schedule: Q01DX009 (ip), vehicle: saline); 89 % of control (dose: 3.12 mg/kg/injection, schedule: Q01DX009 (ip), vehicle: saline); 87 % of control and 89 % of control (dose: 6.25 mg/kg/injection, schedule: Q01DX009 (ip), vehicle: saline).
For `CC(C)C[NH-].CC(C)C[NH-].O.O.[Cl][Pt+2][Cl]`, the T/C is 151 % of control (dose: 10.0 mg/kg/injection, schedule: Q01DX009 (ip), vehicle: other); 160 % of control (dose: 30.0 mg/kg/injection, schedule: Q01DX009 (ip), vehicle: other); 214 % of control (dose: 40.0 mg/kg/injection, schedule: Q01DX009 (ip), vehicle: other); 169 % of control (dose: 50.0 mg/kg/injection, schedule: Q01DX009 (ip), vehicle: other).
With `C[C@H]1[C@H](O)[C@H]2[C@@H](CCC3=CC(=O)CC[C@@]32C)[C@@H]2CC[C@H](O)[C@@]12C`, the T/C is, setting by setting: under setting [7], 94 % of control; under setting [8], 100 % of control.
Regarding `CCC1(O)CC(OC2CC(N(C)C)C(OC3CC(O)C(OC4CCC(=O)C(C)O4)C(C)O3)C(C)O2)c2c(cc3c(c2O)C(=O)c2c(O)ccc(O)c2C3=O)C1C(=O)OC` (stereo not given), the T/C reads like this: (dose: 0.23 mg/kg/injection, schedule: Q01DX009 (ip), vehicle: saline with Tween-80) 98 % of control; (dose: 3.6 mg/kg/injection, schedule: Q01DX001 (ip), vehicle: water) 101 % of control and 109 % of control; (dose: 6.0 mg/kg/injection, schedule: Q01DX001 (ip), vehicle: water) 106 % of control and 112 % of control; (dose: 10.0 mg/kg/injection, schedule: Q01DX001 (ip), vehicle: water) 111 % of control.
Regarding `CC(=O)CC(=O)Nc1cccc(C)c1C`, the T/C under setting [5] was 94 % of control; the T/C (dose: 200.0 mg/kg/injection, schedule: Q01DX009 (ip), vehicle: Klucel (hydroxypropylcellulose) (HPC)) was 86 % of control; the T/C (dose: 400.0 mg/kg/injection, schedule: Q01DX009 (ip), vehicle: Klucel (hydroxypropylcellulose) (HPC)) is 94 % of control.
For the compound `CC(C)CN(CC(C)C)c1ccc([N+](=O)[O-])cc1[N+](=O)[O-]`, the T/C runs as follows: (dose: 6.25 mg/kg/injection, schedule: Q01DX009 (ip), vehicle: saline with Tween-80) 105 % of control; (dose: 12.5 mg/kg/injection, schedule: Q01DX009 (ip), vehicle: saline with Tween-80) 107 % of control; under setting [6], 87 % of control and 114 % of control; under setting [7], 105 % of control; under setting [9], 86 % of control.
Turning to `CCN(C(=O)Nc1ccc(Cl)cc1)c1ccccc1`, the T/C under setting [7] was 94 % of control, the T/C under setting [8] is 97 % of control and the T/C under setting [9] was 92 % of control.

These data come from PubChem BioAssay AID192 (DTP/NCI, 2004).
